Results reported in publication PMC3509539, “seco-Briarellinone and Briarellin S, Two New Eunicellin-Based Diterpenoids from the Panamanian Octocoral Briareum asbestinum” (Marine Drugs, 2012).
Where “and” joins values, the source holds several entries; their conditions need not be identical. Equal values may be shown once.

Key:
[1] = tested on: NO production by thioglycolate elicited peritoneal macrophages from C57Bl/6 mice stimulated with LPS; assay: Inhibition of NO production induced by LPS in macrophages (Griess); format: cell-based, mouse (C57Bl/6); settings: LPS 1 μg/mL; for IC50: Mus musculus, Peritoneal macrophage, primary murine macrophages, compound added 1 h before the stimulus, NO after 24 h
Description: The anti-inflammatory properties of diterpenes from natural sources have been described previously. However, anti-inflammatory activity of the briarellins family has not been evaluated before. The inhibition of NO production is frequently used as an indicator of anti-inflammatory activity. NO is produced by a family of enzymes called NO synthases (NOS) and it mediates many physiological processes. Inflammatory conditions lead to production of high levels of NO regulated by the inducible NOS (iNOS) enzyme. NO is produced by many cell types in vitro in response to several stimuli such as microbial products (e.g., bacterial lipopolisacharide (LPS)), cytokines, viral proteins, among others. We evaluated the production of NO by primary murine macrophages stimulated with LPS (1 μg/mL) in the presence or absence of different concentrations of compounds 1–3. […] The levels of NO found at higher concentrations (20 μg/mL) of compound 1 might be attributed to the non pyrogen-free conditions of the isolation and purification process of compounds. Possible contaminations with potential microbial products in the compounds preparations disguise the inhibitory effect expected at these concentrations. […] Further studies are necessary to find out if compound 3 is able to inhibit other signaling pathways leading to the production of inflammatory mediators different than NO.
Figure 4 Inhibition of nitric oxide (NO) production induced by lipopolisacharides (LPS) in macrophages. […] (B) Cell viabilities were assessed using 3-(4,5-dimethylthiazol-2-yl)-2,5-diphenyltetrazolium bromide (MTT) assay after collection of the supernatant. […]
To determine the anti-inflammatory capacity of compounds 1–3, thioglycolate elicited macrophages from C57Bl/6 mice were used. […] The concentration of NO was measured using the Griess Reagent System from Promega. […]
Data are presented as mean ± S.E.M. Results were analyzed using a statistical software package (GraphPad Prism 5). […]

[2] = tested on: peritoneal macrophages from C57Bl/6 mice; assay: Cytotoxicity testing, MTT assay; format: cell-based, mouse (C57Bl/6); settings: inhibitory concentrations 5–20 μg/mL, macrophages after collection of the supernatant
Method: Figure 4 Inhibition of nitric oxide (NO) production induced by lipopolisacharides (LPS) in macrophages. (A) Peritoneal macrophages from C57Bl/6 mice were treated with different concentrations of compounds 1–3 (1, 2, 5, 10, or 20 μg/mL) 1 h before the stimulus with LPS (1 μg/mL). After 24 h of stimulus with LPS, supernatants were collected for NO determination. (B) Cell viabilities were assessed using 3-(4,5-dimethylthiazol-2-yl)-2,5-diphenyltetrazolium bromide (MTT) assay after collection of the supernatant. Results represent mean ± S.E.M. and are representative of two different experiments. * P < 0.005 compared with LPS stimulus alone. C, control; Comp, compound. To evaluate the cytotoxicity of compounds 1–3, we used the MTT (Methylthiazolyldiphenyl-tetrazolium bromide) assay. Cell supernatants were removed for NO determination and were added to each well, 100 μL of MTT at a concentration of 0.5 mg/mL dissolved in RPMI. The assay plate was incubated overnight at 37 °C in 5% of CO2 atmosphere. In this assay the MTT is reduced to formazan by the activity of NAD-dependent dehydrogenase of living cell mitochondria to form a purple product. […] The color was analyzed at 570 nm using a micro-ELISA plate reader. The percent of viable cells was calculated using the formula: % viability = (ODsample × 100%)/(ODcontrol). […]

| IC50 [1] | SMILES | Cell viability (MTT) [2] | Effect on the production of NO induced by LPS in macrophages ([1]; 1, 2, 5, 10 or 20 μg/mL, 24 h) |
| --- | --- | --- | --- |
| 1.71 µg/mL and 4.7 µM | CC(=O)CC1OC2C3C(CC(=O)C(C)(O)C13)C(C)COC2(C)C=CC=O (centres unmarked) [compound 1, seco-Briarellinone] | do not interfere with the cell viability | – |
| – | CC(=O)CC1OC2[C@@H]3C(C[C@H](C)[C@H](OC(C)=O)[C@H]13)[C@H](C)CO[C@]2(C)/C=C/C=O (some centres unmarked) [compound 3, seco-asbestinin] | – | did not show any significant effect |
| 10 µg/mL and 20.4 µM | C=C1CC2OC3C4C(CC(=O)C(C)(O)C24)C(C)COC3(C)C(OC(=O)CCCCCCC)CC1O (centres unmarked) [compound 2, Briarellin S] | do not interfere with the cell viability | – |
